For experiment [1], the target named is Serine/threonine-protein kinase MRCK gamma (Homo sapiens, UniProt Q6DT37).
For experiment [2], the target named is T1, Discoidin domain-containing receptor 2 (Homo sapiens, UniProt Q16832).
T1 sequence (Q16832 whole entry): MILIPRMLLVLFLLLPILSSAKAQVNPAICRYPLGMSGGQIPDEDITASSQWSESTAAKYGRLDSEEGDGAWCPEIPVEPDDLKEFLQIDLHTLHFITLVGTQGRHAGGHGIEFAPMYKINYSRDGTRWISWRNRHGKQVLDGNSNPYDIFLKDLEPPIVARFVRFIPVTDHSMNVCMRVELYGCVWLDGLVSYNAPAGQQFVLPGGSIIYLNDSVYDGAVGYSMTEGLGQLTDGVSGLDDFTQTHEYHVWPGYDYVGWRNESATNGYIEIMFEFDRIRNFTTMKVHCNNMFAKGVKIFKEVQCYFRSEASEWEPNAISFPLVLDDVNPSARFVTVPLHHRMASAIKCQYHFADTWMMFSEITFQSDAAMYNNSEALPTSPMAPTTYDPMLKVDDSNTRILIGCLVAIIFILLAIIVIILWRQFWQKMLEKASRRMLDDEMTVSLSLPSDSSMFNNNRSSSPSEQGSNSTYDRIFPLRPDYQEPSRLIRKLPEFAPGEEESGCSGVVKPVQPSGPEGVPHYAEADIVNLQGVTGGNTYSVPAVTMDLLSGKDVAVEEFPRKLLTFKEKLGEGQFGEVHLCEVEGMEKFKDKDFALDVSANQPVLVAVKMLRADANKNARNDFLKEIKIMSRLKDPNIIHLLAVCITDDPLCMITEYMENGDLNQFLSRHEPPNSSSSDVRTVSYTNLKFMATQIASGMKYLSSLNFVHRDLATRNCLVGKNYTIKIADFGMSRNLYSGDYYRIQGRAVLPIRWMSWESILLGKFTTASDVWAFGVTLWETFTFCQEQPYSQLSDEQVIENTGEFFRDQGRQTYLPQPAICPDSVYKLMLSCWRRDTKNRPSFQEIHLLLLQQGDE

Experiment [3] has as its target T2, Structural maintenance of chromosomes protein 1A (Homo sapiens, UniProt Q14683).
T2 sequence (Q14683 whole entry): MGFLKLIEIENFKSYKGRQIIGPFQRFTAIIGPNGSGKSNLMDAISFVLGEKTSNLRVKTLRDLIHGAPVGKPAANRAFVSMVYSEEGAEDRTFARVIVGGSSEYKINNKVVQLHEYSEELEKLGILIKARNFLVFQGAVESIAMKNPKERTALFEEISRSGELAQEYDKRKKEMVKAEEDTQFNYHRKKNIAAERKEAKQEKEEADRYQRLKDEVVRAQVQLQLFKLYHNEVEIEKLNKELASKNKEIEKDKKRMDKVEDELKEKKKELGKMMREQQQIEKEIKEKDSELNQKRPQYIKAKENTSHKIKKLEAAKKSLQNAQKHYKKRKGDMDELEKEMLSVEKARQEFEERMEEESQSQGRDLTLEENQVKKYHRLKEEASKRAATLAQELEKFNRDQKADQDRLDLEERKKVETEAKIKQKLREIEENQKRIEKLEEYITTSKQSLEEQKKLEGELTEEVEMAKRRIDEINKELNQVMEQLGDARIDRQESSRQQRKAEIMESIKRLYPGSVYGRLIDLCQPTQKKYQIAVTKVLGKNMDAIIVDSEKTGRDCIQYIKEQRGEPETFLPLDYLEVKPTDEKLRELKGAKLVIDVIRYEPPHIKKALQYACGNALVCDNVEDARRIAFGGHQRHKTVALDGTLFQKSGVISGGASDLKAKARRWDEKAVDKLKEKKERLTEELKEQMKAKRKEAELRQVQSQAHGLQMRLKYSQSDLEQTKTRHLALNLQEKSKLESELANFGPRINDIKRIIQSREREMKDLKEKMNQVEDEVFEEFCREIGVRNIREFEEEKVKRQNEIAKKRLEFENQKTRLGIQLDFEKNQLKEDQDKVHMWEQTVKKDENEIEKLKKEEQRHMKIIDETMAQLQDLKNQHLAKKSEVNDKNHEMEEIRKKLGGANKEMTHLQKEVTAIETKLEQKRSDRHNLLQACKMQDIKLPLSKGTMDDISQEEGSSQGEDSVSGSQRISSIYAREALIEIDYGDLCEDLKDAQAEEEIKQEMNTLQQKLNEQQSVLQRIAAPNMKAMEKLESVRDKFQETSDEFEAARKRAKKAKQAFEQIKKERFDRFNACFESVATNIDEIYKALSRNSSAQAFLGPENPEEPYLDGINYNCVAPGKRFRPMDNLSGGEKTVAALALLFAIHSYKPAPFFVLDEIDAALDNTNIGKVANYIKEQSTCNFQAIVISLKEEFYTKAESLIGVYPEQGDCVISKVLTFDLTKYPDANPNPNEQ

For experiment [4], the target named is Cell division cycle 7-related protein kinase (Homo sapiens, UniProt O00311).
Sequence of Cell division cycle 7-related protein kinase (O00311 whole entry): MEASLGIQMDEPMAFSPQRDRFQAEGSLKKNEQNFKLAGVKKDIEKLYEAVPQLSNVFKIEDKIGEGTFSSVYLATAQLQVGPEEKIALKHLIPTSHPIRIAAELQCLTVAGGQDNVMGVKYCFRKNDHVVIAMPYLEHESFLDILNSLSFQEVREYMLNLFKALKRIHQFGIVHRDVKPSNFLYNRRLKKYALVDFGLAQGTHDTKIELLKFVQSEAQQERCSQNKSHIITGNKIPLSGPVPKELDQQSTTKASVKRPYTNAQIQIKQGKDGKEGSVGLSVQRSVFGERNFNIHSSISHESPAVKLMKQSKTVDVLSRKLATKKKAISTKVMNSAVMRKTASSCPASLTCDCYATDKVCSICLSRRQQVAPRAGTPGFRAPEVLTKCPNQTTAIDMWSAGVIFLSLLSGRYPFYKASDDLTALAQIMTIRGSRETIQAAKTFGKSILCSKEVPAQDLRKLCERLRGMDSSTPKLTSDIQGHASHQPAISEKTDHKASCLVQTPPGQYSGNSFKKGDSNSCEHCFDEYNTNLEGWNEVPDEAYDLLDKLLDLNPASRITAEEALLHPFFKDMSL
Experiment [5] deals with Choline-phosphate cytidylyltransferase A (Homo sapiens, UniProt P49585).
Sequence of Choline-phosphate cytidylyltransferase A (P49585 whole entry): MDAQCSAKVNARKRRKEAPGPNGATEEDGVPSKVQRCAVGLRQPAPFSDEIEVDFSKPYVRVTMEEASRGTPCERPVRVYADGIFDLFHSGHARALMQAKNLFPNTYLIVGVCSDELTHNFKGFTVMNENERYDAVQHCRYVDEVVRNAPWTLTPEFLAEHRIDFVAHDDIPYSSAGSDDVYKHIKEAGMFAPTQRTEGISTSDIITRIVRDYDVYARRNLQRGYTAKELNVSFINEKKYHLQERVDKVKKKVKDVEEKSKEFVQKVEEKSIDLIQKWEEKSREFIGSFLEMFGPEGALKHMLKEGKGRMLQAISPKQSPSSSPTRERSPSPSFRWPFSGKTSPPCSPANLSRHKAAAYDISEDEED

Activity calls are given as the source filed them.
Further: in the data inactive means no Kd found up to 30 µM.

Sequence of Serine/threonine-protein kinase MRCK gamma (Q6DT37 whole entry, the tested form may be a part): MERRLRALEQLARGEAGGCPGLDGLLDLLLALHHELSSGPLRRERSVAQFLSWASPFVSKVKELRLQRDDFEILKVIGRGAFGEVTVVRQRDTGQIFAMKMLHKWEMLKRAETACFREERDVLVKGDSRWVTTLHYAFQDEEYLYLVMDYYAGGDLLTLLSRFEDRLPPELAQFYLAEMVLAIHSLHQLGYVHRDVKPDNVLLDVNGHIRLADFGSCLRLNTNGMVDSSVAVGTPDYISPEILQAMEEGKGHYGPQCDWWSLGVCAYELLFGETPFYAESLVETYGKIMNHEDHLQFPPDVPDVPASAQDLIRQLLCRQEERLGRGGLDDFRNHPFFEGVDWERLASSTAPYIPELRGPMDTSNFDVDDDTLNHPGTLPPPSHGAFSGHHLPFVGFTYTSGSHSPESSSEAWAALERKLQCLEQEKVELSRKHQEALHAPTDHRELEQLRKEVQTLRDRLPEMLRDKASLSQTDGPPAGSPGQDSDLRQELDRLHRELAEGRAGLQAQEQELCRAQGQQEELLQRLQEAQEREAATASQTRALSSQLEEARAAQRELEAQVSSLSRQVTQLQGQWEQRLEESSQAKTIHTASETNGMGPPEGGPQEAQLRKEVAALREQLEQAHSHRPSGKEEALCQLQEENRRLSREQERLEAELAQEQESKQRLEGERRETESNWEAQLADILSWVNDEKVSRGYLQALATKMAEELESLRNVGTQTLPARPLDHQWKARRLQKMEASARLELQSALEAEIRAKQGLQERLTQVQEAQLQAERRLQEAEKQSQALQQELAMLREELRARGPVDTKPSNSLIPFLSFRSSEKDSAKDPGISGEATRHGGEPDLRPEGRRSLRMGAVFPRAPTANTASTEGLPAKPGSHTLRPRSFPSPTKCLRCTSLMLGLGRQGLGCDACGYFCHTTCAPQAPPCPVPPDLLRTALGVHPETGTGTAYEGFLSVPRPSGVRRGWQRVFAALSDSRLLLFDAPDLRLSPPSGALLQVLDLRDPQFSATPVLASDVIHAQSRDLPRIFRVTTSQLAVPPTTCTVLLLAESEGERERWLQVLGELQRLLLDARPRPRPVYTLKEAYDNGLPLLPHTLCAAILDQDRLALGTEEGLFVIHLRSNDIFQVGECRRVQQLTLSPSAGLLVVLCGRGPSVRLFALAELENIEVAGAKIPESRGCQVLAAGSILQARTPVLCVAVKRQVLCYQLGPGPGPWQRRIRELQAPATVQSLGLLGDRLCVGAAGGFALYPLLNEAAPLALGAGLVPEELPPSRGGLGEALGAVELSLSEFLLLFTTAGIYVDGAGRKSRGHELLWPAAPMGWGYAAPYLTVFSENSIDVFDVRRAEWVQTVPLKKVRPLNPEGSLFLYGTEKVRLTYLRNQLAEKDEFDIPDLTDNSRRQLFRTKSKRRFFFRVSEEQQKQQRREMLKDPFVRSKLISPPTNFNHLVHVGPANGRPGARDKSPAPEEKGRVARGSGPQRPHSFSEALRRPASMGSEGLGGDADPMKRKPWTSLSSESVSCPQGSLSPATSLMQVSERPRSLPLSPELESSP

`COc1cc2nccc(Oc3ccc(NC(=O)NC4CC4)c(Cl)c3)c2cc1C(N)=O` [LENVATINIB]: the Kd (commonly the constant that tells how readily two partners part at equilibrium) in experiment [1] was > 30 µM (inactive); in experiment [2] it was 0.218 µM (active); in experiment [3], > 30 µM (inactive).
As to `O=C(Nc1cccc(Cl)c1)Nc1ncc(CCNc2ncnc3ccsc23)s1` [SNS-314], the values for the Kd in experiment [1], in experiment [2] and in experiment [3] were > 30 µM (inactive), 0.423 µM (active) and > 30 µM (inactive), respectively.
On to `Cc1cn(-c2cc(NC(=O)c3ccc(C)c(Nc4nccc(-c5cccnc5)n4)c3)cc(C(F)(F)F)c2)cn1` [NILOTINIB], for which the Kd in experiment [4] and in experiment [3] was > 30 µM (inactive) throughout.
On to `CCS(=O)(=O)N1CC(CC#N)(n2cc(-c3ncnc4[nH]ccc34)cn2)C1` [BARICITINIB], for which the Kd in experiment [1], in experiment [2] and in experiment [3] was > 30 µM (inactive) throughout.
`C=CC(=O)N1CCC(Oc2cc3c(Nc4ccc(Cl)c(Cl)c4F)ncnc3cc2OC)CC1` [POZIOTINIB]: the Kd in experiment [2], in experiment [5] and in experiment [3] was > 30 µM (inactive) in each case.
In the case of `CN1CCN(c2ccc3nc(-c4c(N)c5c(F)cccc5[nH]c4=O)[nH]c3c2)CC1` [DOVITINIB], the Kd in experiment [5] and in experiment [3] was > 30 µM (inactive) in each case.
Consider `CNC(=O)c1ccc(C)c(-n2c(C)cc(OCc3ccc(F)cc3F)c(Br)c2=O)c1` [PH-797804], for which the Kd in experiment [2] and in experiment [3] was > 30 µM (inactive) throughout.
For the compound `C[C@@H](c1ccc2nccn2c1)n1nnc2ncc(-c3cnn(C)c3)nc21` [SAVOLITINIB], the Kd in experiment [2] and in experiment [3] was > 30 µM (inactive) throughout.
Take `CCn1c(-c2nonc2N)nc2c(C#CC(C)(C)O)ncc(OC[C@H]3CCCNC3)c21` [GSK-690693]: the Kd in experiment [3] is > 30 µM (inactive).
As for `CCc1cnn2c(NCc3ccc[n+]([O-])c3)cc(N3CCCC[C@H]3CCO)nc12` [DINACICLIB], the Kd in experiment [1], in experiment [2], in experiment [5] and in experiment [3] was > 30 µM (inactive) throughout.
As to `COc1cc2nccc(Oc3ccc(NC(=O)Nc4cc(C)on4)c(Cl)c3)c2cc1OC` [TIVOZANIB], the Kd in experiment [1] is > 30 µM (inactive); in experiment [2], 0.592 µM (active); in experiment [5], > 30 µM (inactive); in experiment [3], > 30 µM (inactive).
As for `CCCS(=O)(=O)Nc1ccc(F)c(C(=O)c2c[nH]c3ncc(-c4ccc(Cl)cc4)cc23)c1F` [VEMURAFENIB], the Kd in experiment [1], in experiment [2] and in experiment [3] was > 30 µM (inactive) each time.
On to `N[C@@H]1CCCN(c2c(/C=C3\SC(=O)NC3=O)cccc2-c2ccccc2)C1`, for which the Kd in experiment [1], in experiment [2], in experiment [5] and in experiment [3] was > 30 µM (inactive) in each case.
Regarding `CC[C@@H]1C(=O)N(C)c2cnc(Nc3ccc(C(=O)N[C@H]4CC[C@H](N5CCN(CC6CC6)CC5)CC4)cc3OC)nc2N1C(C)C` [VOLASERTIB], the Kd in experiment [1], in experiment [2], in experiment [5] and in experiment [3] was > 30 µM (inactive) throughout.
For `CC[C@H](Nc1ncnc2[nH]cnc12)c1nc2cccc(F)c2c(=O)n1-c1ccccc1` [IDELALISIB], the Kd in experiment [1], in experiment [2] and in experiment [3] was > 30 µM (inactive) throughout.
`O=C(c1ccc(F)c(F)c1Nc1ccc(I)cc1F)N1CC(O)([C@@H]2CCCCN2)C1` [COBIMETINIB]: the Kd in experiment [2], in experiment [5] and in experiment [3] was > 30 µM (inactive) in each case.
Turning to `C1=C/COCc2cc(ccc2OCCN2CCCC2)Nc2nccc(n2)-c2cccc(c2)COC/1` [PACRITINIB], the Kd in experiment [2] and in experiment [3] was > 30 µM (inactive) in each case.
Consider `Cn1cc(-c2ccc(F)c(C(F)(F)F)c2)nc1C1CCN(c2ncnc3[nH]ncc23)CC1` [LY-2584702], for which the Kd in experiment [1] and in experiment [2] was > 30 µM (inactive) throughout.

These data come from ChEMBL document CHEMBL3991601, “The target landscape of clinical kinase drugs” (Science, 2017).
